Source: US20240317746A1, “CRYSTALLINE FORMS OF AN AZETIDINE PARP1 INHIBITOR” (XinThera, Inc., priority 2023, published 2024)
Structures can show the parent of a compound that is named as a salt.

Experiment: Exposure of solid to air at about 38% RH and 22° C.
Type: physicochemical
Conditions: exposed to air at about 38% RH and 22° C.
Procedure: 6 g of Compound 1 Form I, about 99 wt % purity, was dissolved in a mixture of about 96 g of DCM and about 20 g MeOH at about 32° C. The solution was polish filtered and then the vessel was rinsed forward with a mixture of about 20 g of DCM and about 3.6 g of MeOH. The filtrate was charged with a solution containing about 2.28 g of L-tartaric acid dissolved in about 6 mL of water at about 22° C. A slurry of solids formed after stirring for about 1 day. The slurry was distilled under vacuum to about 3 V (about 20 mL) at about 40° C., and then cooled to about 22° C. It was charged with about 87 g of acetone, held at about 22° C. for about 1 h, and then cooled to about 0° C. After holding for about 4 h, the slurry was filtered, rinsed with about 24 g of pre-cooled acetone twice. The wet cake was dried at 50° C. with full house vacuum under nitrogen sweep for about 4 days to afford about 7.36 g of L-tartrate Form IV (with a small amount of L-tartrate Form I). […] When exposed to air at about 38% RH and 22° C., a small sample of Compound 1 L-tartrate Form IV completely converted to Compound 1 L-tartrate Form III in less than 20 min.

time to complete conversion to L-tartrate Form III: less than 20 min
SMILES: C[C@@H]1[C@@H](Oc2ccc(C(=O)NC3CC3)nc2)CN1Cc1cnc2cc(Cl)c(=O)[nH]c2c1 [L-Tartrate Salt Form IV, 5-(((2R,3S)-1-((7-chloro-6-oxo-5,6-dihydro-1,5-naphthyridin-3-yl)methyl)-2-methylazetidin-3-yl)oxy)-N-cyclopropylpicolinamide]
